For one experiment, the system named is D. pseudoobscura SPR. In words: CHO cell aequorin luminescence assay, insect SPR orthologue. It counts as cell-based. Conditions: CHO cells expressing SPR, aequorin and Gαqi.
The next experiment concerns A. aegypti SPR. The experiment is described as above. It counts as cell-based, Aedes aegypti. Conditions: CHO cells expressing SPR, aequorin and Gαqi.
A further experiment has as its system B. mori SPR. The description is as above. It counts as cell-based, Bombyx mori. Conditions: CHO cells expressing SPR, aequorin and Gαqi.
The conditions of experiment [1]: Saudan et al., 2002; cited from earlier work.
Another experiment concerns the target T1, CG16752 (Drosophila melanogaster, UniProt Q8SWR3).
T1 construct: The relevant GPCRs are expressed from constructs prepared by cloning the entire open reading frame in a pcDNA3.1(+) vector; expressed in transfected cells; host or cells: CHO-K1
T1 sequence (Q8SWR3 1-435): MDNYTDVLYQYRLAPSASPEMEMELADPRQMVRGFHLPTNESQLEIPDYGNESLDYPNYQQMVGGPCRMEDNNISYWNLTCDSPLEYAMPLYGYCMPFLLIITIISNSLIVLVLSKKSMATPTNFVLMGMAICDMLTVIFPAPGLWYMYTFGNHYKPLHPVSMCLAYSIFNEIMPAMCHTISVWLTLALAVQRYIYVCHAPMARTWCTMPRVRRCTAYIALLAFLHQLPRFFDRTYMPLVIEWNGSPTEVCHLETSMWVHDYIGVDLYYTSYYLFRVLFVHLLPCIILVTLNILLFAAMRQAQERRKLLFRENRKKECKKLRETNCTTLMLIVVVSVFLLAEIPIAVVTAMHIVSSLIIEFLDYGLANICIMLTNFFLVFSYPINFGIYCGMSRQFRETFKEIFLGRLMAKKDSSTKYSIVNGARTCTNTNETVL
Description: CHO cell aequorin luminescence (Ca2+) assay. Conditions: for Ca^2+ responses: 0.1µM or 10µM SP. It counts as cell-based.

The next experiment deals with T2, CG2114 (Drosophila melanogaster, UniProt Q9VZW5).
T2 construct: The relevant GPCRs are expressed from constructs prepared by cloning the entire open reading frame in a pcDNA3.1(+) vector; expressed in transfected cells; host or cells: CHO-K1
T2 sequence (Q9VZW5 1-549): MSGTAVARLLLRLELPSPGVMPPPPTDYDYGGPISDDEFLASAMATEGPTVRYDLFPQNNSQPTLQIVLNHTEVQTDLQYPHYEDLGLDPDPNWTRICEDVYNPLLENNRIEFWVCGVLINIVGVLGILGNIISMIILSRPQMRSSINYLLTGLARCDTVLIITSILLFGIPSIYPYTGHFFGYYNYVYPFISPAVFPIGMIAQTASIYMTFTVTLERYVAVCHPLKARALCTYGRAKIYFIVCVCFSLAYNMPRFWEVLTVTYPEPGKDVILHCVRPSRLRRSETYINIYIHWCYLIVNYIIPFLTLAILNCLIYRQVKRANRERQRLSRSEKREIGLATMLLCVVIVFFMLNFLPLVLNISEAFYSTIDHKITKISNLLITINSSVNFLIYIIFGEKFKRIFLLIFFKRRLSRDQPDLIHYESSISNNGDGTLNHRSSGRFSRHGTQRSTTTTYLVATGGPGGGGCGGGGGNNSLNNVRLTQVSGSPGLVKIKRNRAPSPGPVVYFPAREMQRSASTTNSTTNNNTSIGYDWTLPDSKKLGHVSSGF
In words: CHO cell aequorin luminescence assay, related GPCR. The experiment is classed as cell-based. Conditions: 10µM peptide; CHO cells expressing CG2114 and aequorin.

A further experiment has as its system CG8784. Description: CHO cell aequorin luminescence assay, related GPCR. The experiment is classed as cell-based, Drosophila. Conditions: 10µM peptide; CHO cells expressing CG8784 and aequorin.
The next experiment concerns virgin females. Description: Receptivity of virgin females after SP injection. The experiment is classed as in vivo, Drosophila. Conditions: assayed 5 h after injection.
Another experiment relates to Helicoverpa armigera. Conditions: Fan et al., 1999 and 2000; cited from earlier work.
Experiment [2] has as its target T3, Drosophila melanogaster sex peptide receptor (SPR), GPCR encoded by CG16752 (Drosophila melanogaster, UniProt Q8SWR3 1-435).
T3 sequence: T1 sequence (Q8SWR3 1-435)
In words: cell-based or functional assay.

Experiment [3] concerns the target T4, SPR of Drosophila pseudoobscura (Drosophila pseudoobscura).
T4 chain: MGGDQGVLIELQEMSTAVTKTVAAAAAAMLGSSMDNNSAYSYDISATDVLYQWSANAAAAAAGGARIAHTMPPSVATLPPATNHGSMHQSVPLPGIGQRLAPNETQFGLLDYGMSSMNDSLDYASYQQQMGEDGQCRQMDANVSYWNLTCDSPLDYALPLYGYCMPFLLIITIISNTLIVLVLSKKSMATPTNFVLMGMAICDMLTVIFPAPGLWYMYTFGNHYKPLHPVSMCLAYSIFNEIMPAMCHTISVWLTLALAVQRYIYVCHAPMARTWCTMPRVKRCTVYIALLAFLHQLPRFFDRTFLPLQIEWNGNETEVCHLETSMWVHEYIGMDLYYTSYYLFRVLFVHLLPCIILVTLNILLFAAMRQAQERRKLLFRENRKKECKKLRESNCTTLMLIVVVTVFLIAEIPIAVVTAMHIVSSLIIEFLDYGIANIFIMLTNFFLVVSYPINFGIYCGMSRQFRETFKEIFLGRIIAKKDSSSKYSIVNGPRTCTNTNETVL
In words: cell-based or functional assay.

A further experiment has as its target T5, SPR of Aedes aegypti (Aedes aegypti).
T5 chain: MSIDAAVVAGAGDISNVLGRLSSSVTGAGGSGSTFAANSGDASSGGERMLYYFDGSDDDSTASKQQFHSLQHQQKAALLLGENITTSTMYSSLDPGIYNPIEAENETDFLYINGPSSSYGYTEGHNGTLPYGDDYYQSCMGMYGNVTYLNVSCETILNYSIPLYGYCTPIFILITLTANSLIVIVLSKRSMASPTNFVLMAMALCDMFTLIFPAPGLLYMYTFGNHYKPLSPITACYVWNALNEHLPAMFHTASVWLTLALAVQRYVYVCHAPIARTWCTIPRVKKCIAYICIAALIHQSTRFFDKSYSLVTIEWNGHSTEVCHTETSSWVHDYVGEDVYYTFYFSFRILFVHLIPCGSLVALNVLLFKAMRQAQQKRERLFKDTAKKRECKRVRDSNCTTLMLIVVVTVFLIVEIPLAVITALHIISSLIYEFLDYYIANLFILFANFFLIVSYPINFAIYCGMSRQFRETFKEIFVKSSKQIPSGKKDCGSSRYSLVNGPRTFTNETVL
In words: cell-based or functional assay.

In a further experiment the target is T6, SPR of Bombyx mori (Bombyx mori).
T6 chain: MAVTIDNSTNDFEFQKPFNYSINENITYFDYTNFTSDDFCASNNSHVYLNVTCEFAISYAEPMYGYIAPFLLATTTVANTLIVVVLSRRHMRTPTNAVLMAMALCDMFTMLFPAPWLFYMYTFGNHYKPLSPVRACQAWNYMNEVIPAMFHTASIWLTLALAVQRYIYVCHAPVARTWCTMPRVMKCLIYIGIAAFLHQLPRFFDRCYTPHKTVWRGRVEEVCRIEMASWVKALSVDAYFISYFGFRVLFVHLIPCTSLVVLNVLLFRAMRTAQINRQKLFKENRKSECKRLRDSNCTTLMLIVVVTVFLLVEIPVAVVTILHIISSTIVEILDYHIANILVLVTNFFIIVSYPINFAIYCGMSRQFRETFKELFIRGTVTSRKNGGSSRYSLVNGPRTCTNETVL
In words: cell-based or functional assay.

Bridge positions count the residues as written; N and C are the ends. Square brackets hold non-standard residues; d marks the D form. Ends that are not written are not given here. Peptide text beside a SMILES is read from it. pGlu = O=C1CC[C@@H](C(=O)O)N1

This is an account of results in patent EP2067787A1, “Method for controlling insect populations” (Boehringer Ingelheim International GmbH, priority 2007, dated 2009).

The EC50 is the concentration at which the effect is half-maximal. Read a high EC50 as lower potency in that assay.

As for `CC[C@H](C)[C@H](NC(=O)[C@H](Cc1c[nH]c2ccccc12)NC(=O)[C@H](CCC(=O)O)NC(=O)[C@@H](NC(=O)[C@H](CC(=O)O)NC(=O)[C@H](CC(N)=O)NC(=O)[C@H](CCCNC(=N)N)NC(=O)[C@H](CC(=O)O)NC(=O)[C@@H]1CCC(=O)N1)[C@@H](C)O)C(=O)N[C@@H](CCC(N)=O)C(=O)N[C@@H](CO)C(=O)N[C@@H](CCC(N)=O)C(=O)N[C@@H](CCCCN)C(=O)N[C@@H](CC(=O)O)C(=O)N[C@@H](CCCNC(=N)N)C(=O)N[C@@H](CCC(=O)O)C(=O)N[C@@H](CCCCN)C(=O)N[C@@H](Cc1c[nH]c2ccccc12)C(=O)N[C@H]1CSSC[C@@H](C(=O)O)NC(=O)[C@H](CCCNC(=N)N)NC(=O)CNC(=O)CNC(=O)[C@H](CC(C)C)NC(=O)[C@H](Cc2ccc(O)cc2)NC(=O)[C@@H]2CCCN2C(=O)CNC(=O)[C@H](CC(C)C)NC(=O)[C@H](CC(N)=O)NC(=O)[C@H](CC(C)C)NC(=O)[C@H](CCCNC(=N)N)NC1=O` [DUP99B] ([pGlu]DRNDTEWIQSQKDREKWCRLNLGPYLGGRC-OH; disulfide 19-31), the “response of receptor to peptide” value with D. pseudoobscura SPR, in the experiment with A. aegypti SPR and in the experiment on B. mori SPR was “lower sensitivity” throughout. Besides, the post-mating responses entry in experiment [1] is “can induce the same post-mating responses as SP”.

Consider `CC[C@H](C)[C@H](NC(=O)[C@@H]1C[C@@H](O)CN1C(=O)[C@H](Cc1ccccc1)NC(=O)[C@H](CCCCN)NC(=O)[C@@H](NC(=O)[C@@H]1C[C@@H](O)CN1C(=O)[C@H](CCCCN)NC(=O)[C@H](CCCNC(=N)N)NC(=O)[C@H](CC(N)=O)NC(=O)[C@H](Cc1c[nH]c2ccccc12)NC(=O)[C@@H]1CCCN1C(=O)[C@H](Cc1c[nH]c2ccccc12)NC(=O)[C@H](CCC(=O)O)NC(=O)[C@@H](N)Cc1c[nH]c2ccccc12)[C@@H](C)O)C(=O)N1C[C@H](O)C[C@H]1C(=O)N[C@@H](CO)C(=O)N1C[C@H](O)C[C@H]1C(=O)N[C@@H](CC(N)=O)C(=O)N1C[C@H](O)C[C@H]1C(=O)N[C@@H](CCCNC(=N)N)C(=O)N[C@@H](CC(=O)O)C(=O)N[C@@H](CCCCN)C(=O)N[C@@H](Cc1c[nH]c2ccccc12)C(=O)N[C@H]1CSSC[C@@H](C(=O)O)NC(=O)[C@H](CCCNC(=N)N)NC(=O)CNC(=O)CNC(=O)[C@H](Cc2c[nH]c3ccccc23)NC(=O)[C@H](C)NC(=O)[C@@H]2CCCN2C(=O)CNC(=O)[C@H](CC(C)C)NC(=O)[C@H](CC(N)=O)NC(=O)[C@H](CC(C)C)NC(=O)[C@H](CCCNC(=N)N)NC1=O` [SP], for which the “Ca^2+ responses” value at CG16752 (cotransfected chimeric G protein Gαqi) is given as “robust Ca^2+ responses”; on CG16752 (cotransfected chimeric G protein Gαqo), “robust Ca^2+ responses”; at CG16752 (cotransfected chimeric G protein Gαqs) it was “not Gαqs”. In addition, the luminescence response result on CG16752 (no additional G protein (endogenous Gαq/11), concentrations as high as 10µM) is “very weak response”. The results for the EC50 with D. pseudoobscura SPR, in the experiment on A. aegypti SPR and in the experiment with B. mori SPR were 4.3 nM, 167 nM and 63 nM, respectively. Also, the “sensitivity to peptide ligand” value on CG2114 and with CG8784 was “not to SP” throughout. Also, the “receptivity to naive males” value is “remaine receptive” with virgin females (Df(1)Exel6234 homozygous virgins, 12pmol SP injected) and “unreceptive” in the experiment on virgin females (wild-type virgins, 12pmol SP injected into haemolymph). Besides, the post-mating responses entry in the experiment with Helicoverpa armigera was “can induce post-mating responses”.

For the molecule “pQLQSNGEPAYRVRTPRLa ([pGlu]LQSNGEPAYRVRTPRL-NH2; SMILES CC(C)C[C@H](NC(=O)[C@H](CCCNC(=N)N)NC(=O)[C@@H]1CCCN1C(=O)[C@@H](NC(=O)[C@H](CCCNC(=N)N)NC(=O)[C@@H](NC(=O)[C@H](CCCNC(=N)N)NC(=O)[C@H](Cc1ccc(O)cc1)NC(=O)[C@H](C)NC(=O)[C@@H]1CCCN1C(=O)[C@H](CCC(=O)O)NC(=O)CNC(=O)[C@H](CC(N)=O)NC(=O)[C@H](CO)NC(=O)[C@H](CCC(N)=O)NC(=O)[C@H](CC(C)C)NC(=O)[C@@H]1CCC(=O)N1)C(C)C)[C@@H](C)O)C(N)=O) [hugin-γ, ligand of CG8784]”, in the experiment with CG16752 (10µM peptide, co-transfected with Gαqi), the “activation of receptor by peptide ligand” value was “Neither of these peptides activates”. Besides, the “sensitivity to peptide ligand” value in the experiment on CG8784 is given as “confer sensitivity”.

B1: synthetic sex peptide (SP) of Drosophila melanogaster (peptide)
peptide: WEWPWNRKPTKFPIPSPNPRDKWCRLNLGPAWGGRC
modifications: disulfide 24-36 (inferred); also: hydroxyproline at some P residues, places not given here
On to B1, for which the “EC50, dose-response of luminescence in CHO cells expressing CG16752, aequorin and Gαqi” value in experiment [2] worked out at 1.3 nM. Also, the “EC50, dose-response of luminescence in CHO cells expressing the SPR, aequorin and Gαqi” value was found to be 4.3 nM in experiment [3], 167 nM with SPR of Aedes aegypti and 63 nM with SPR of Bombyx mori.

B2: synthetic DUP99B (peptide)
peptide: [pGlu]DRNDTEWIQSQKDREKWCRLNLGPYLGGRC
modifications: disulfide 19-31 (inferred)
As to B2, the “EC50, dose-response of luminescence in CHO cells expressing CG16752, aequorin and Gαqi” value in experiment [2] was determined as 7.3 nM.
